Experimental data reported in PubChem BioAssay (NCI).
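How tested: cells in 96-well plates exposed to compound for 48 hours at five concentrations. TGI is the concentration that stops growth completely.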

Legend:
Experiment in all cases: DTP human tumour cell line panel, 48 h
A549 NSCLC = system: A549 NSCLC
EKVX NSCLC = system: EKVX NSCLC
HCT-116 colon = system: HCT-116 colon
K-562 leukemia = system: K-562 leukemia
M14 melanoma = system: M14 melanoma
MDA-MB-435 = system: MDA-MB-435
MOLT-4 leukemia = system: MOLT-4 leukemia
SF-295 CNS = system: SF-295 CNS
SF-539 CNS = system: SF-539 CNS
TK-10 renal = system: TK-10 renal
UACC-257 melanoma = system: UACC-257 melanoma

Row | SMILES | TGI (A549 NSCLC) | TGI (EKVX NSCLC) | TGI (HCT-116 colon) | TGI (K-562 leukemia) | TGI (M14 melanoma) | TGI (MDA-MB-435) | TGI (MOLT-4 leukemia) | TGI (SF-295 CNS) | TGI (SF-539 CNS) | TGI (TK-10 renal) | TGI (UACC-257 melanoma)
1 | CCOC(=O)c1cc(C2(O)CCN(Cc3ccccc3)C2=O)c(-c2cc(C)no2)[nH]1 (configuration not stated) | > 100 µM | > 100 µM | > 100 µM | > 100 µM | > 100 µM | > 100 µM | 41.9 µM | 78.4 µM | > 100 µM | > 100 µM | > 100 µM
2 | c1sc(NC2=NCCO2)c2c1CCCC2 | > 100 µM | > 100 µM | > 100 µM | > 100 µM | > 100 µM | > 100 µM | > 100 µM | > 100 µM | > 100 µM | > 100 µM | > 100 µM
3 | COC(=O)C1=C(C(=O)OC)C2OC1C1C2C2(C)C(C)=C(C)C1(C)S2=O (configuration not stated) | > 55.8 µM | 27.6 µM | 27 µM | > 100 µM | 27.7 µM | 19.4 µM | > 100 µM | > 84.8 µM | > 100 µM | 29.8 µM | 29.6 µM
4 | COc1ccc(Nc2c(C#N)c3n(c4ccccc24)c2ccccc2[n+]3C)cc1OC | 14.9 µM | 10.1 µM | 7.56 µM | > 20 µM | 8.01 µM | 14.8 µM | > 29.5 µM | 11 µM | 6.88 µM | 12.4 µM | 17 µM
5 | Cc1cc2c(c(C(=O)NCCC(=O)O)c1)Oc1c(cc(C)cc1C(=O)NCCC(=O)O)S2 | > 100 µM | > 100 µM | > 100 µM | > 100 µM | > 100 µM | > 100 µM | > 100 µM | > 100 µM | > 100 µM | > 100 µM | > 100 µM
6 | COc1cc(COC(=O)N[C@H](C(=O)O)C(C)(C)C)c([N+](=O)[O-])cc1OC | > 100 µM | > 100 µM | > 100 µM | > 100 µM | > 100 µM | > 100 µM | > 100 µM | > 100 µM | > 100 µM | > 100 µM | > 100 µM
7 | CCOC(=O)c1cc2c([N+](=O)[O-])c(NC(C)=O)ccc2s1 | > 100 µM | 98 µM | > 100 µM | > 100 µM | > 100 µM | > 100 µM | > 100 µM | > 100 µM | > 100 µM | > 100 µM | > 100 µM
8 | C[C@]12OC[C@H](c3ccccc3)N1C(=O)C1[C@H]2CC12SCCS2 (some centres not stated) | > 100 µM | > 100 µM | > 100 µM | > 100 µM | > 100 µM | > 100 µM | > 100 µM | > 100 µM | > 100 µM | > 100 µM | > 100 µM
9 | CC(=O)OCC1OC(N2C(=O)/C(=C\c3ccc(Cl)cc3)C(N)=Nc3ccccc32)C(OC(C)=O)C(OC(C)=O)C1OC(C)=O (configuration not stated) | > 100 µM | > 100 µM | 30.2 µM | 33.1 µM | 37.4 µM | 30.7 µM | 27 µM | > 100 µM | 40.8 µM | 88.2 µM | 66.6 µM
10 | Cc1ccc2c(c1)nc(N)n[n+]2[O-] | > 100 µM | > 100 µM | > 100 µM | > 100 µM | > 100 µM | > 100 µM | > 100 µM | > 100 µM | > 100 µM | > 100 µM | > 100 µM
11 | CC(C)(C)C(=O)C(CC(=O)c1ccccc1)C(=O)C(C)(C)C | > 100 µM | > 100 µM | > 100 µM | > 100 µM | > 100 µM | > 100 µM | > 100 µM | > 100 µM | > 100 µM | > 100 µM | > 100 µM
12 | Cc1ccc(N=Nc2c3c(c(O)c4ccccc24)CCC(C)(C)O3)cc1 | 31.8 µM | 75.3 µM | 49.2 µM | > 100 µM | 32.6 µM | 31.7 µM | > 100 µM | 28.8 µM | > 100 µM | 88.5 µM | 23 µM
13 | COc1ncc(C=C(C#N)C#N)c(OC)n1 | > 100 µM | > 100 µM | 74.9 µM | > 100 µM | 40.9 µM | 78.8 µM | > 100 µM | > 100 µM | > 100 µM | > 100 µM | 57.8 µM
14 | O=c1oc2ccccc2c(O)c1C(c1cc(OCc2ccccc2)cc(OCc2ccccc2)c1)c1c(O)c2ccccc2oc1=O | > 56.4 µM | 41.8 µM | 17.5 µM | > 25.4 µM | 23 µM | 31.3 µM | 19.8 µM | 24 µM | 36.7 µM | 33.4 µM | 38.2 µM
15 | O=C(O)c1ccc(NC(c2ccccc2)c2ccc3cccnc3c2O)cc1 (configuration not stated) | > 100 µM | > 85.6 µM | > 100 µM | > 49.8 µM | > 85.5 µM | > 100 µM | > 42.6 µM | > 100 µM | 25.9 µM | 71.6 µM | 46.2 µM
16 | Cc1c(S(=O)(=O)c2ccccc2)c(N)n(Cc2ccccc2)c1C | > 100 µM | > 100 µM | > 100 µM | > 100 µM | > 100 µM | > 100 µM | > 100 µM | > 100 µM | > 100 µM | > 100 µM | > 100 µM
17 | Clc1nc(Cl)nc(NC23CC4CC(CC(C4)C2)C3)n1 | 38.5 µM | 37.4 µM | 31.3 µM | 33.7 µM | 33.6 µM | 34.4 µM | 51.2 µM | 45.9 µM | 35 µM | 32.6 µM | 42.3 µM
18 | c1cc2nnc1SCCSCCSc1ccc(nn1)SCCSCCS2 | > 100 µM | > 100 µM | > 100 µM | > 100 µM | > 100 µM | > 100 µM | > 100 µM | > 100 µM | 96.8 µM | > 100 µM | > 100 µM
19 | Nc1nc2ncc(SCc3ccc(C(=O)NC(CCC(=O)O)C(=O)O)cc3)cc2c(=O)[nH]1 (configuration not stated) | > 100 µM | > 100 µM | > 100 µM | > 100 µM | > 100 µM | > 100 µM | > 100 µM | > 100 µM | > 100 µM | > 100 µM | > 100 µM
20 | Cc1cccc(N2C(=O)C3ON(C(C(N)=O)c4ccccc4)C(c4c5ccccc5c(Cl)c5ccccc45)C3C2=O)c1C (configuration not stated) | 48.5 µM | 22.5 µM | 3.84 µM | > 50 µM | 16.1 µM | 14.6 µM | 10.2 µM | 23 µM | 16.8 µM | 25.3 µM | 18.1 µM
21 | N#Cc1c(N)[nH]c(=S)c(C#N)c1-c1cccc(Cl)c1 | > 100 µM | 97.9 µM | 60.6 µM | > 100 µM | > 100 µM | 49.7 µM | 57.8 µM | > 100 µM | > 100 µM | > 100 µM | > 100 µM
22 | Cc1cc(-c2nc3ccccc3s2)ccc1NS(=O)(=O)O | > 100 µM | > 100 µM | > 100 µM | > 100 µM | > 100 µM | > 100 µM | > 100 µM | > 100 µM | > 100 µM | > 100 µM | > 100 µM
